Results: US4758566A, “2-(1-piperazinyl)-4-substituted phenylquinoline derivatives, processes for the preparation thereof, and pharmaceutical composition containing the same” (Dainippon Pharmaceutical Co., Ltd., priority 1984, dated 1988)
Structures can show the parent of a compound that is named as a salt.

Assays:
[1] = test system: ulceration induced by exposure to stress (restraint and water immersion) in rats; experiment: Effect on the ulceration induced by exposure to stress (restraint and water immersion) in rats, Test 2; type: in vivo, rat (male Wistar); details: for inhibition in vivo at 10 mg/kg / Ulcer index: stress-induced ulcer
Protocol: Effect on the ulceration induced by exposure to stress (restraint and water immersion) in rats The effect evaluated by this test is considered to be fairly well correlative to inhibitory effect on gastric acid secretion. Male Wistar rats weighing about 200 g were used in groups of 5 animals each. According to the method of Takagi et al. [cf. Japan. […] After 20 hours, the animals were taken out from the water bath and sacrificed under ether anesthesia, and the stomachs were removed. The stomach was inflated with 13 ml of physiological saline and placed in a 5% formalin solution for 5 minutes. After washing with physiological saline, the stomach was cut along the greater curvature and the length (mm) of each lesion in the glandular portion was measured using a dissecting microscope (×12). The sum of the length (mm) of each lesion in a stomach was indicated as an ulcer index. The inhibitory rate was determined by comparing the ulcer index in drug-treated groups with that in control group. Test compounds were administered orally 30 minutes before the immersion. In the control group, a vehicle (a 0.5% tragacanth solution) was administered orally.

[2] = test system: ulceration induced by ethanol in rats; experiment: Effect on the ulceration induced by ethanol in rats (gastric cytoprotection activity), Test 1; type: in vivo, rat (male Wistar); details: for Ulcer index / inhibition in vivo at 10 mg/kg: ethanol-induced ulcer
Protocol: Effect on the ulceration induced by ethanol in rats (gastric cytoprotection activity) This test was carried out according to the method of Robert [cf. […] Male Wistar rats weighing 190 g to 200 g were fasted for 24 hours and then given orally 1 ml of absolute ethanol. After 1 hour, the animals were sacrificed under ether anesthesia, and the stomachs were removed and cut along the greater curvature. The length (mm) of each lesion in the glandular portion was measured using a dissecting microscope (×12). The sum of the length (mm) of each lesion in a stomach was indicated as an ulcer index. The inhibitory rate was determined by comparing the ulcer index in drug-treated groups with that in control group. Test compounds were administered orally 30 minutes before the administration of ethanol. In the control group, a vehicle (a 0.5% tragacanth solution) was administered orally.

[3] = test system: hypothermia induced by reserpine; experiment: Antireserpine activity (antagonistic effect on hypothermia induced by reserpine), Test 4; type: in vivo, mouse (male ddY); details: mouse
Protocol: Antireserpine activity (antagonistic effect on hypothermia induced by reserpine)
This test was carried out according to the method of Askew [cf. Life Sci., 2, 725 (1963)].
Male ddY mice weighing 22 g to 27 g were used in groups of 5 animals each. Test compounds were administered orally to the animals, and immediately 5 mg/kg of reserpine was injected intraperitoneally. Rectal temperature of each mouse was measured 4 hours later with a thermistor (Shibaura Electric, BMG III-130). The inhibitory rate was determined by comparing the fall of rectal temperature in drug-treated groups with that in control group. In the control group, a vehicle (a 0.5% tragacanth solution) was administered orally.

[4] = test system: ulceration induced by pylorus-ligation (Shay ulcer) in rats; experiment: Effect on the ulceration induced by pylorus-ligation (Shay ulcer) in rats, Test 3; type: in vivo, rat (male Wistar); details: Shay ulcer, rat; for Ulcer index: index of 0 to 5
Protocol: Effect on the ulceration induced by pylorus-ligation (Shay ulcer) in rats […] The portion between pylorus and duodenum of each rat was ligated under ether anesthesia according to the method of Shay et al. […] Each of the animals was then allowed to stand abstained from food and water in a cage. After 18 hours, the animals were sacrificed under ether anesthesia, and the stomachs were removed and cut along the greater curvature. […] 0: no lesion 1: hemorrhage or erosion […] The inhibitory rate was determined by comparing the ulcer index in drug-treated groups with that in the control group. […] Test compounds were administered orally 30 minutes before the ligation. In the control group, a vehicle (a 0.5% tragacanth solution) was administered orally.

[5] = po, 20 h, rat, 10 mg/kg p.o., read-out: Inhibitory rate
[6] = po, 1 h, rat, 10 mg/kg p.o., read-out: Inhibitory rate

| Compound | inhibition in vivo at 10 mg/kg [1, 5] [%] | Ulcer index ([1]; rat, 10 mg/kg p.o.) [mm] | Ulcer index ([2]; rat, 10 mg/kg p.o.) [mm] | inhibition in vivo at 10 mg/kg [2, 6] [%] | Inhibitory rate ([3]; 100 mg/kg p.o.) [%] | further results |
| --- | --- | --- | --- | --- | --- | --- |
| O=C(O)/C=C\C(=O)O.O=C(O)/C=C\C(=O)O.OCCN1CCN(c2cc(-c3ccc(C(F)(F)F)cc3)c3ccccc3n2)CC1 [F, 2-[4-(2-hydroxyethyl)-1-piperazinyl]-4-(4-trifluoromethylphenyl)quinoline dimaleate] | 41.6 | 19.8 ± 2.0 | 6.7 ± 1.8 | 87.2 |  |  |
| O=C(O)/C=C\C(=O)O.O=C(O)/C=C\C(=O)O.OCCN1CCN(c2cc(-c3ccc(Cl)cc3)c3ccccc3n2)CC1 [G, 2-[4-(2-hydroxyethyl)-1-piperazinyl]-4-(4-chlorophenyl)quinoline dimaleate] | 36.4 | 18.5 ± 6.9 | 10.8 ± 6.3 | 76.1 |  |  |
| Cc1ccc(-c2cc(N3CCN(CCO)CC3)nc3ccccc23)cc1.O=C(O)/C=C\C(=O)O.O=C(O)/C=C\C(=O)O [E, 2-[4-(2-hydroxyethyl)-1-piperazinyl]-4-(4-methylphenyl)quinoline dimaleate] | 69.7 | 11.8 ± 4.6 | 12.0 ± 2.3 | 64.4 | 51.3 |  |
| CCN1CCN(c2cc(-c3ccc(Cl)cc3)c3ccccc3n2)CC1.O=C(O)/C=C\C(=O)O.O=C(O)/C=C\C(=O)O [D, 2-(4-ethyl-1-piperazinyl)-4-(4-chlorophenyl)quinoline dimaleate] | 54 | 13.4 ± 2.1 | 8.6 ± 4.5 | 89 | 45.2 |  |
| CN(C)CCCN1c2ccccc2CCc2ccccc21 [Imipramine hydrochloride, reference compound] |  |  |  |  | 94.5 | Inhibitory rate ([3]; 10 mg/kg p.o.): 29.5%; Inhibitory rate ([3]; 30 mg/kg p.o.): 69.3% |
| FC(F)(F)c1cccc(-c2cc(N3CCNCC3)nc3ccccc23)c1.O=C(O)/C=C\C(=O)O.O=C(O)/C=C\C(=O)O [H, 2-(1-piperazinyl)-4-(3-trifluoromethylphenyl)quinoline dimaleate] | 4.3 | 24.7 ± 3.6 | 7.1 ± 1.9 | 84.3 |  |  |
| CN/C(=N/CCSCc1nc[nH]c1C)NC#N [Cimetidine, reference compound] |  |  |  |  |  | inhibition in vivo at 20 mg/kg ([1]; Rattus norvegicus, po, 20 h, read-out: Inhibitory rate): 39.1%; preventive effect on the stress-induced ulceration (in words) ([1]; rat, 20 mg/kg p.o.): did not exhibit any significant effect; Ulcer index ([1]; rat, 20 mg/kg p.o.): 15.1 ± 2.9 mm; Inhibitory rate ([4]; 50 mg/kg p.o.): 0%; Ulcer index ([4]; 50 mg/kg p.o.): 3.3 ± 0.3; Inhibitory rate ([4]; 100 mg/kg p.o.): 9.1%; Ulcer index ([4]; 100 mg/kg p.o.): 3 ± 0.5; Inhibitory rate ([4]; 200 mg/kg p.o.): 42.4%; Ulcer index ([4]; 200 mg/kg p.o.): 1.9 ± 0.4; Inhibitory rate ([4]; 500 mg/kg p.o.): 75.8%; Ulcer index ([4]; 500 mg/kg p.o.): 0.8 ± 0.2; inhibition in vivo at 100 mg/kg ([2]; Rattus norvegicus, po, 1 h, read-out: Inhibitory rate): 25.1%; Ulcer index ([2]; rat, 100 mg/kg p.o.): 23.9 ± 8.2 mm; protective effect on the ethanol-induced ulceration (in words) ([2]; rat, 100 mg/kg p.o.): did not exhibit any significant protective effect |
| Clc1ccc(-c2cc(N3CCNCC3)nc3ccccc23)cc1.O=C(O)/C=C\C(=O)O [C, 2-(1-piperazinyl)-4-(4-chlorophenyl)quinoline maleate] | 65.6 | 8.5 ± 2.9 | 4.5 ± 3.7 | 87.4 | 64.3 |  |
| O=C(O)/C=C\C(=O)O.O=C(O)/C=C\C(=O)O.OCCN1CCN(c2cc(-c3cccc(C(F)(F)F)c3)c3ccccc3n2)CC1 [J, 2-[4-(2-hydroxyethyl)-1-piperazinyl]-4-(3-trifluoromethylphenyl)quinoline dimaleate] | -2.7 | 34.8 ± 3.9 | 9.0 ± 4.2 | 74.8 |  |  |
| CCN1CCN(c2cc(-c3cccc(C(F)(F)F)c3)c3ccccc3n2)CC1.O=C(O)/C=C\C(=O)O.O=C(O)/C=C\C(=O)O [I, 2-(4-ethyl-1-piperazinyl)-4-(3-trifluoromethylphenyl)quinoline dimaleate] | 20.1 | 27.1 ± 2.2 | 16.5 ± 3.9 | 63.5 |  |  |
